Patent publication US20080207538A1, “Enhanced Production of Functional Proteins From Defective Genes” (priority 2004, published 2008)

Key:
[1] = system: stop codon inserted into the reading frame of firefly luciferase; experiment: stop codon read-through, dual luciferase assay in transfected 293T cells; assay type: cell-based, human; conditions: relative to untreated transfected cells, 24 hour incubation
Description: Plasmid construction. The wild type human fibroblast cell line GM02037 (Coriell Cell Repositories, NJ) was used as the DNA template for atm promoter amplification. In brief, the Qiagen Blood & Cell Culture DNA Mini kit was used to purify genomic DNA. ATM gene promoter primers, which were used to amplify the desired fragment DNA, were designed based on the sequence in Genebank. The forward primer sequence employed was […] (SEQ ID NO:1) and the reverse primer was […] (SEQ ID NO:2). PCR was carried out using the Roche Expand High Fidelity PCR system. The amplified atm promoter region was then cloned into the TOPO2.1 PCR vector (Invitrogen) for sequencing verification and subsequently subcloned into the promoterless plasmid PA3Luc. Firefly luciferase cDNA was mutated (QuikChange Site-Directed Mutagenesis Kit) in the desired region to furnish the three stop codons, as shown as FIG. 1(C). The CMV driven Renilla luciferase plasmid was purchased from Promega as the internal control for the dual luciferase assay.
Transfections were performed using GeneJammer reagent (Stratagene) based on the protocol from the manufacturer. In brief, approximately […] HEK293T cells were seeded into white 96 well plates (Corning) and grown for less than 24 hours. Cells were transfected with 0.6 μL of GeneJammer and 0.1 μg plasmids. In the dual luciferase assay, the plasmid ratio of ATM promoter-driven firefly luciferase to CMV promoter-driven Renilla luciferase was 30:1. In the dual luciferase experiments that utilized the stop codon-containing firefly luciferase genes, the ratio was 40:1. On the second day after transfection, the medium in each well was changed, and the promoter and/or nonsense-suppressing agents added to the wells for a 24 hour incubation period. The cells were subsequently lysed and promoter activity/nonsense suppression efficiency then assessed via the dual luciferase assay.
Dual luciferase assay. The dual luciferase kit was purchased from Promega and the protocol employed was conducted according to the directions supplied by the manufacturer. In brief, cells were washed with PBS and lysates were prepared using passive lysis buffer. Luminescence was determined with a Molecular Devices Lmax 96 well plate luminometer. Light emission was measured after each of the 100 μL luminescence substrates and/or stop solutions were injected. ATM promoter activity was calculated by the ratio of relative light units of flash (firefly) to glow (renilla) luminescence in each well, which was compared with control wells (cultured only in medium with plasmid but no drug treatment) in each plate. In the case of the stop codon suppression studies, controls also included cells containing the plasmids without the inserted stop codon, which were treated with nonsense suppressing and/or promoter activating agents. All individual treatments in a given experiment were performed in triplicate and all experiments repeated 3-10 times.
An evaluation was made of the ability of aminoglycosides, in combination with promoter activating agents, to augment read-through of a stop codon inserted into the reading frame of firefly luciferase (FIG. 1C).

atm message = experiment: atm mRNA quantitation by real time PCR (RT-PCR) after drug treatment; assay type: cell-based, human; conditions: for Fold-increase (atm message levels): relative to untreated cell line
Description: Cell culture and transfection. Human Kidney HEK293T cell was a gift from Professor Philipp Scherer in the Department of Cell Biology at the Albert Einstein College of Medicine. All other cell lines were purchased from Coriell Cell Repositories, NJ. HEK293T cells were maintained in Dulbecco's Modified Eagle Medium with 1 g/L D-glucose and 10% fetal bovine serum. The Human AT fibroblast cell line GM05823 was cultured in MEM medium with 1 g/L D-glucose and 15% fetal bovine serum. The Human lympoblastoid cell lines GM 13810 and GM13860 were cultured in RPMI 1640 medium with 10% heat inactivated fetal bovine serum and 1 g/L of D-glucose. All cell lines were incubated at 37° C. in a humidified 5% CO2 atmosphere.
mRNA Quantitation. Single-stranded cDNAs were synthesized by reverse transcription, using a First Strand cDNA Synthesis kit (Invitrogen), and then used as a template in polymerase chain reactions. ATM mRNA was primarily quantified using real time polymerase chain reaction (PCR). In brief, cells were treated with the desired drugs or combinations thereof under conditions identical to those described above for the dual luciferase assay. Cells were lysed and RNA extracted with the TRIzol reagent (Invitrogen). Approximately 1 μg of total RNA in each sample was subjected to CDNA synthesis using the First Strand cDNA Synthesis kit (Invitrogen). In the real time PCR reaction, the FAM labeled MGB probe, CCAGCTATTTGGTTTGAG (SEQ ID NO:3), was designed by the Primer Express software from Applied Biosystems (AB) and synthesized by AB. The human β-actin MGB probes, VIC or FAM fluorescently labeled, were purchased from AB. All other reaction reagents were purchased from AB. PCR reactions were performed using the ABI PRISM 7000 Sequence Detection System in triplicate. Some samples were also tested on the ABI 7700 Sequence Detection System for verification and essentially identical results were obtained with both real time PCR instruments. All collected data were compared with a […] control. In addition to real time PCR, the branched chain DNA (bDNA) RNA quantitation method was employed as well. Briefly, the QuantiGene kit as well as the customer designed atm probe sets were purchased from Genospectra. The latter probes target the same region on the atm message RNA region as the real time PCR probes. The cells were treated as described above for the dual luciferase assay. Cell lysates were transferred into a capture plate and atm mRNA allowed to hybridize with the probe set at 53° C. overnight. After 16-20 hours, the signal was amplified and subsequently read using a Molecular Devices Lmax luminometer. The internal human β-actin probe sets were purchased from Genospectra. All experiments were performed in triplicate.
The effect of ofloxacin on native atm message levels was subsequently examined in 293T cells as well as in lymphoblastoid and primary fibroblast cell lines derived from A-T patients (Table 1). Message levels are enhanced 2.4±0.1 fold in 293T cells treated with ofloxicin for 24 hours. By contrast, an up to nearly 6-fold increase is observed in ATM-deficient (A-T) cell lines. The latter results offer the intriguing possibility that atm message levels are elevated more dramatically in an ATM-deficient environment.

[2] = system: animal models of cystic fibrosis and Duchenne muscular dystrophy; conditions: reported; cited from earlier work
[3] = system: patients with sickle-cell anemia; conditions: Perrine et al., 1993; cited from earlier work
atm promoter = experiment: cell-based screen for atm promoter enhancing agents (atm/pA3LUC dual luciferase, 293T cells); design: species or system human; conditions: transiently transfected 293T cells; firefly/renilla luciferase
From the text: Plasmid construction. The wild type human fibroblast cell line GM02037 (Coriell Cell Repositories, NJ) was used as the DNA template for atm promoter amplification. In brief, the Qiagen Blood & Cell Culture DNA Mini kit was used to purify genomic DNA. ATM gene promoter primers, which were used to amplify the desired fragment DNA, were designed based on the sequence in Genebank. The forward primer sequence employed was […] (SEQ ID NO:1) and the reverse primer was GCCACGGGAGGAGGCGAG (SEQ ID NO:2). PCR was carried out using the Roche Expand High Fidelity PCR system. […]
Transfections were performed using GeneJammer reagent (Stratagene) based on the protocol from the manufacturer. […] The cells were subsequently lysed and promoter activity/nonsense suppression efficiency then assessed via the dual luciferase assay.
Dual luciferase assay. […] Luminescence was determined with a Molecular Devices Lmax 96 well plate luminometer. Light emission was measured after each of the 100 μL luminescence substrates and/or stop solutions were injected. ATM promoter activity was calculated by the ratio of relative light units of flash (firefly) to glow (renilla) luminescence in each well, which was compared with control wells (cultured only in medium with plasmid but no drug treatment) in each plate. […]

nonsense mutations = conditions: reported, Keeling and Bedwell, 2002; cited from earlier work

CN[C@@H]1[C@@H](O)[C@@H](O[C@@H]2[C@@H](O)[C@H](O[C@H]3O[C@H]([C@@H](C)O)[C@@H](O)[C@H](O)[C@H]3N)[C@@H](N)C[C@H]2N)OC[C@]1(C)O [Geneticin, geneticin]
Fold-increase (read-through) ([1]; amber (UAG) stop codon): 14.9 ± 1.9 fold
Fold-increase (read-through) ([1]; ochre (UAA) stop codon): 7.9 ± 3.0 fold
Fold-increase (read-through) ([1]; opal (UGA) stop codon): 6.5 ± 0.8 fold

CC1COc2c(N3CCN(C)CC3)c(F)cc3c(=O)c(C(=O)O)cn1c23 (stereo not shown) [Ofloxacin, ofloxacin]
Message levels enhanced (atm) (atm message; 293T cells, treated for 24 hours): 2.4±0.1 fold
increase in atm message levels (atm message; ATM-deficient (A-T) cell lines, summary of Table 1): ≤ 6 fold
Fold-increase (atm message levels) (atm message; GM05823 (A-T) fibroblast cell line, 2 hours after ofloxacin): 2.2 ± 0.1 fold
Fold-increase (atm message levels) (atm message; GM05823 (A-T) fibroblast cell line, 6 hours after ofloxacin): 3.0 ± 0.2 fold
Fold-increase (atm message levels) (atm message; GM05823 (A-T) fibroblast cell line, 24 hours after ofloxacin): 5.8 ± 0.4 fold
Fold-increase (atm message levels) (atm message; GM13810 (A-T) lymphoblastoid cell line, 2 hours after ofloxacin): 1.2 ± 0.2 fold
Fold-increase (atm message levels) (atm message; GM13810 (A-T) lymphoblastoid cell line, 6 hours after ofloxacin): 2.3 ± 0.3 fold
Fold-increase (atm message levels) (atm message; GM13810 (A-T) lymphoblastoid cell line, 24 hours after ofloxacin): 5.4 ± 0.7 fold
Fold-increase (atm message levels) (atm message; GM13860 (A-T) lymphoblastoid cell line, 2 hours after ofloxacin): 3.8 ± 0.9 fold
Fold-increase (atm message levels) (atm message; GM13860 (A-T) lymphoblastoid cell line, 6 hours after ofloxacin): 2.3 ± 0.3 fold
Fold-increase (atm message levels) (atm message; GM13860 (A-T) lymphoblastoid cell line, 24 hours after ofloxacin): 3.3 ± 0.3 fold

O=C(O)c1cccc(-c2noc(-c3ccccc3F)n2)c1 [PTC124]
efficacy in animal models [2]: effective

CCCC(=O)[O-].[Na+] [Sodium butyrate, sodium butyrate]
toxicity in patients [3]: minimal toxicity

Nc1nc2nc[nH]c2c(=S)[nH]1 [Thioguanine, thioguanine]
activation of the atm promoter (atm promoter): induce atm promoter activity

NCC[C@H](O)C(=O)N[C@@H]1C[C@H](N)[C@@H](O[C@H]2O[C@H](CN)[C@@H](O)[C@H](O)[C@H]2O)[C@H](O)[C@H]1O[C@H]1O[C@H](CO)[C@@H](O)[C@H](N)[C@H]1O [amikacin]
effectiveness at suppressing nonsense mutations compared with tobramycin (nonsense mutations): more effective

gentamicin
effectiveness at suppressing nonsense mutations compared with tobramycin (nonsense mutations): more effective
Fold-increase (read-through) ([1]; amber (UAG) stop codon): 8.2 ± 1.8 fold
Fold-increase (read-through) ([1]; ochre (UAA) stop codon): 6.7 ± 1.5 fold
Fold-increase (read-through) ([1]; opal (UGA) stop codon): 8.7 ± 1.2 fold
